This is an account of results in ChEMBL document CHEMBL5380814, “Targeting Receptor-Interacting Protein Kinase 1 by Novel Benzothiazole Derivatives: Treatment of Acute Lung Injury through the Necroptosis Pathway” (J Med Chem, 2023).

Calls of active or inactive are those of the source. The rule behind the calls is not given here. Where only a bound is given, the exact number is not on record here.

The test system of test [1] is HT-29. Briefly: Anti-necroptotic activity in human HT-29 cells assessed as inhibition of human TNFalpha/Smac mimetic/Z-VAD-FMK induced necroptosis preincubated with compound for 16 to 24 hrs followed by TSZ stimulation for 12 hrs measured by cell-titre glo luminescent cell viability assay. Format: functional, cell-based.
Test [2] concerns HT-29. As to the kind of experiment: Cytotoxicity against human HT-29 cells incubated at 100 uM for 16 to 24 hrs measured by cell-titre glo luminescent cell viability assay. It counts as functional, cell-based. Conditions: time 16-24 hrs.
Test [3] concerns HT-29. As to the kind of experiment: Anti-necroptotic activity in human HT-29 cells assessed as inhibition of human TNFalpha/Smac mimetic/Z-VAD-FMK induced necroptosis preincubated with compound followed by TSZ stimulation for 12 hrs. It counts as functional, cell-based.
The subject of test [4] is HT-29. Briefly: Cytotoxicity against human HT-29 cells incubated for 16 to 24 hrs measured by cell-titre glo luminescent cell viability assay. Format: functional. Conditions: time 16-24 hrs.
Test [5] deals with T1, Receptor-interacting serine/threonine-protein kinase 1 (Homo sapiens, UniProt Q13546).
T1 sequence (Q13546 whole entry): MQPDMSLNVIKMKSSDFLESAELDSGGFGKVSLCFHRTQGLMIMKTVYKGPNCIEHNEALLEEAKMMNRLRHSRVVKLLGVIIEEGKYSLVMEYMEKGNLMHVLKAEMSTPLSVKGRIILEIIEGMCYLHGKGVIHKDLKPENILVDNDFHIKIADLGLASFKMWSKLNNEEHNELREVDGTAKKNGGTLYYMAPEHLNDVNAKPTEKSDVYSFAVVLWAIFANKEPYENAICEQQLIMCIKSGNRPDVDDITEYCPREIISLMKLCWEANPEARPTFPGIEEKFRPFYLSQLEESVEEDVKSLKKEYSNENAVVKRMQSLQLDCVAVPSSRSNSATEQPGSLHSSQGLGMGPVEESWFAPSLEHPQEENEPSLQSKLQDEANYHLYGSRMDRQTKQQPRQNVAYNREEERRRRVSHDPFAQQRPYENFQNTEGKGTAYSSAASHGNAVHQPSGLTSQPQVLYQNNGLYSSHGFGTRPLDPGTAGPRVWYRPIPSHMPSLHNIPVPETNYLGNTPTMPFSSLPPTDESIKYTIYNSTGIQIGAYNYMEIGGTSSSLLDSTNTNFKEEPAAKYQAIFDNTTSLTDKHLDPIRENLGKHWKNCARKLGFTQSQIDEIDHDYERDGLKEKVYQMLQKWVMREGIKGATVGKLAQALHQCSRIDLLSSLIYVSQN
Briefly: Binding affinity to human wildtype full length RIPK1 (M1 to K305 residues) expressed in bacterial expression system assessed as dissociation constant by kinome scan kd select based qPCR analysis.

Test [6] concerns the target Receptor-interacting serine/threonine-protein kinase 3 (Homo sapiens, UniProt Q9Y572). As to the kind of experiment: Binding affinity to human wildtype full length RIPK3 (M1 to Q307 residues) expressed in bacterial expression system assessed as dissociation constant by kinome scan kd select based qPCR analysis.
In test [7] the test system is Mus musculus. As to the kind of experiment: In vivo anti-inflammatory activity in NNK induced induced C57BL/6J ALI mouse model assessed as lung injury score pretreated at 5 mg/kg, ip for 1 hr followed by NNK administration relative to disease model (reference value: 5.7 +/- 0.5). Format: functional.

Receptor-interacting serine/threonine-protein kinase 3, sequence (Q9Y572 whole entry, the tested form may be a part): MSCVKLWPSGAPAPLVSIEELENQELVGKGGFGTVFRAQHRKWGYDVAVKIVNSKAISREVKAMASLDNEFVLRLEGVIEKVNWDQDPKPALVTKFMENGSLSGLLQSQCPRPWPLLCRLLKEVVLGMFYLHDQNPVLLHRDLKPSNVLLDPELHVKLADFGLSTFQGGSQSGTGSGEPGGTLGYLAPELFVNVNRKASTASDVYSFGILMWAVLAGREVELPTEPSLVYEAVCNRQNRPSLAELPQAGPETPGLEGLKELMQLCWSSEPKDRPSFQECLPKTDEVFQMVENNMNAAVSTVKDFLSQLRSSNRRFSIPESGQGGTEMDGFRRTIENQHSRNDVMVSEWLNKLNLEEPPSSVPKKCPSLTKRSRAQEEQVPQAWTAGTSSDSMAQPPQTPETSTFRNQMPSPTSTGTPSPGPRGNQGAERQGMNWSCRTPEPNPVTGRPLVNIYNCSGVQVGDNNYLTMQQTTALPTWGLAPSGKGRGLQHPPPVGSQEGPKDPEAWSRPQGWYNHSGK

For the compound `CCCC1CCC(C2CCC(C(=O)Nc3nc4cc(F)c(Oc5ccc(F)c(NC(=O)Cc6cccc(C(F)(F)F)c6)c5)cc4s3)CC2)CC1` (centres undefined), the concentration for a half-maximal effect (EC50) in test [1] is > 10 µM. In addition, the outcome in test [2] was Active. For the same compound, in test [3], the result was inactive. Besides, the CC50 in test [4] was > 100 µM.

Turning to `O=C(Cc1cccc(C(F)(F)F)c1)Nc1cc(Oc2cc3sc(NC(=O)C4CCC(O)CC4)nc3cc2F)ccc1F` (centres undefined), the EC50 in test [1] was determined as 0.0956 µM. Further, the result in test [2] was Active. The result in test [3] was inactive. The CC50 in test [4] is > 100 µM.

Turning to `CCCC1CCC(C(=O)Nc2nc3cc(F)c(Oc4ccc(F)c(NC(=O)Cc5cccc(C(F)(F)F)c5)c4)cc3s2)CC1` (centres undefined), the EC50 in test [1] is > 10 µM. The outcome in test [2] was Active. In addition, in test [3], the outcome was inactive. Moreover, the CC50 in test [4] is > 100 µM.

Turning to `CCCS(=O)(=O)NC1CCC(C(=O)Nc2nc3cc(F)c(Oc4ccc(F)c(NC(=O)Cc5cccc(C(F)(F)F)c5)c4)cc3s2)CC1` (centres undefined), the EC50 in test [1] worked out at 0.119 µM. For the same compound, the outcome in test [2] was Active. Moreover, the outcome in test [3] was inactive. Further, the CC50 in test [4] was > 100 µM.

For `O=C1CCC(C(=O)Nc2nc3ccc(Oc4ccc(F)c(NC(=O)Cc5cccc(C(F)(F)F)c5)c4)cc3s2)CC1`, the half-maximal effective concentration (EC50) in test [3] came out at 0.05 µM. Besides, the CC50 in test [4] was > 50 µM.

`CC(C)(C)OC(=O)NC1CCC(C(=O)Nc2nc3cc(F)c(Oc4ccc(F)c(NC(=O)Cc5cccc(C(F)(F)F)c5)c4)cc3s2)CC1` (centres undefined): the EC50 in test [1] turned out to be 0.136 µM. Moreover, the result in test [2] was Active. In test [3], the outcome was inactive. In addition, in test [4], the 50% cytotoxic concentration (CC50) was > 100 µM.

As for `O=C(Cc1cccc(C(F)(F)F)c1)Nc1cc(Oc2cc3sc(NC(=O)C4CCC(NC(=O)c5ccc(F)cc5)CC4)nc3cc2F)ccc1F` (centres undefined), the EC50 in test [1] was 0.0552 µM. Moreover, in test [2], the result was Active. For the same compound, the result in test [3] was inactive. Also, in test [4], the CC50 is > 100 µM.

Regarding `CC(=O)OCC(=O)NC1CCC(C(=O)Nc2nc3cc(F)c(Oc4ccc(F)c(NC(=O)Cc5cccc(C(F)(F)F)c5)c4)cc3s2)CC1` (centres undefined), in test [1], the EC50 was 0.0818 µM. Besides, in test [2], the result was Active. For the same compound, in test [3], the outcome was inactive. Further, the CC50 in test [4] is > 100 µM.

Regarding `CC(C)CC(=O)NC1CCC(C(=O)Nc2nc3cc(F)c(Oc4ccc(F)c(NC(=O)Cc5cccc(C(F)(F)F)c5)c4)cc3s2)CC1` (centres undefined), the EC50 in test [1] came out at 0.0475 µM. In addition, the outcome in test [2] was Active. The result in test [3] was inactive. Besides, the CC50 in test [4] is > 100 µM.

For the compound `O=C(Cc1cccc(C(F)(F)F)c1)Nc1cc(Oc2cc3sc(NC(=O)C4CCC(NC(=O)c5cccs5)CC4)nc3cc2F)ccc1F` (centres undefined), the EC50 in test [1] stood at 0.0529 µM. Also, in test [2], the result was Active. Moreover, the Kd was 0.069 µM in test [5] and > 10 µM in test [6]. In test [3], the outcome was inactive. In addition, in test [4], the CC50 was > 100 µM.

Regarding `CCC(=O)NC1CCC(C(=O)Nc2nc3cc(F)c(Oc4ccc(F)c(NC(=O)Cc5cccc(C(F)(F)F)c5)c4)cc3s2)CC1` (centres undefined), the EC50 in test [1] was found to be 0.0832 µM. Besides, the result in test [2] was Active. For the same compound, the outcome in test [3] was inactive. Further, the CC50 in test [4] was > 100 µM.

Turning to `CCCC(=O)NC1CCC(C(=O)Nc2nc3cc(F)c(Oc4ccc(F)c(NC(=O)Cc5cccc(C(F)(F)F)c5)c4)cc3s2)CC1` (centres undefined), in test [1], the EC50 amounted to 0.0827 µM. In addition, in test [2], the result was Active. Also, in test [3], the result was inactive. Besides, in test [4], the CC50 was > 100 µM.

For `O=C(Cc1cccc(C(F)(F)F)c1)Nc1cc(Oc2cc3sc(NC(=O)C4CCC(NC(=O)OCc5ccccc5)CC4)nc3cc2F)ccc1F` (centres undefined), the EC50 in test [1] was determined as 0.945 µM. In addition, in test [2], the result was Active. Also, the result in test [3] was inactive. For the same compound, the CC50 in test [4] was > 100 µM.

For `COCC(=O)NC1CCC(C(=O)Nc2nc3cc(F)c(Oc4ccc(F)c(NC(=O)Cc5cccc(C(F)(F)F)c5)c4)cc3s2)CC1` (centres undefined), the EC50 in test [1] turned out to be 0.0448 µM. In test [2], the outcome was Active. Also, the results for the Kd in test [5] and in test [6] were 0.015 µM and > 10 µM, respectively. Besides, the outcome in test [3] was inactive. The CC50 in test [4] is > 100 µM.

As to `O=C(Cc1cccc(C(F)(F)F)c1)Nc1cc(Oc2cc3sc(NC(=O)C4CCC(NC(=O)C5CC5)CC4)nc3cc2F)ccc1F` (centres undefined), the EC50 in test [1] is 0.0505 µM. Moreover, the result in test [2] was Active. Besides, in test [3], the outcome was inactive. For the same compound, the CC50 in test [4] is > 100 µM.

In the case of `CC(C)C(=O)NC1CCC(C(=O)Nc2nc3cc(F)c(Oc4ccc(F)c(NC(=O)Cc5cccc(C(F)(F)F)c5)c4)cc3s2)CC1` (centres undefined), the EC50 in test [1] is 0.0341 µM. Besides, the outcome in test [2] was Active. The values for the Kd in test [5] and in test [6] were 0.015 µM and > 10 µM, respectively. Moreover, the result in test [3] was inactive. In addition, the half-maximal cytotoxic concentration (CC50) in test [4] was > 100 µM.

Consider `C[C@@H]1C[C@H]2[C@@H]3CCC4=CC(=O)C=C[C@]4(C)[C@@]3(F)[C@@H](O)C[C@]2(C)[C@@]1(O)C(=O)CO` [DEXAMETHASONE], for which the Activity in test [7] was 3.7.

As for `N#Cc1c(Oc2ccc(F)c(NC(=O)Cc3cccc(C(F)(F)F)c3)c2)ccc2nc(NC(=O)C3CC3)sc12`, the CC50 in test [4] is > 50 µM.

With `O=C(Cc1cccc(C(F)(F)F)c1)Nc1cc(Oc2cc3sc(NC(=O)C4CCC(NC(=O)C5CCCC5)CC4)nc3cc2F)ccc1F` (centres undefined), the EC50 in test [1] was determined as 0.0729 µM. In test [2], the outcome was Active. The result in test [3] was inactive. Besides, the CC50 in test [4] was > 100 µM.

Regarding `CCOCC(=O)NC1CCC(C(=O)Nc2nc3cc(F)c(Oc4ccc(F)c(NC(=O)Cc5cccc(C(F)(F)F)c5)c4)cc3s2)CC1` (centres undefined), the EC50 in test [1] stood at 0.0484 µM. For the same compound, the outcome in test [2] was Active. Moreover, the Kd in test [5] is 0.015 µM; in test [6], > 10 µM. In addition, in test [3], the outcome was inactive. Moreover, in test [4], the CC50 was > 100 µM.

Turning to `O=C(Cc1cccc(C(F)(F)F)c1)Nc1cc(Oc2cc3sc(NC(=O)C4CCCC(NC(=O)C5CC5)C4)nc3cc2F)ccc1F` (centres undefined), the concentration for a half-maximal effect (EC50) in test [1] came out at 0.0712 µM. Further, in test [2], the result was Active. Further, the outcome in test [3] was inactive. For the same compound, in test [4], the CC50 is > 100 µM.

Take `O=C(Cc1cccc(C(F)(F)F)c1)Nc1cc(Oc2cc3sc(NC(=O)C4CCC(NS(=O)(=O)c5ccccc5)CC4)nc3cc2F)ccc1F` (centres undefined): the EC50 in test [1] was found to be 0.235 µM. Also, the outcome in test [2] was Active. Also, the result in test [3] was inactive. Besides, the CC50 in test [4] was > 100 µM.

In the case of `CCCCC(=O)NC1CCC(C(=O)Nc2nc3cc(F)c(Oc4ccc(F)c(NC(=O)Cc5cccc(C(F)(F)F)c5)c4)cc3s2)CC1` (centres undefined), in test [1], the EC50 was 0.0424 µM. Also, the result in test [2] was Active. The Kd is 0.045 µM in test [5] and > 10 µM in test [6]. Also, in test [3], the outcome was inactive. The CC50 in test [4] was > 100 µM.

Take `CC(C)(C)OC(=O)NC1CCCC(C(=O)Nc2nc3cc(F)c(Oc4ccc(F)c(NC(=O)Cc5cccc(C(F)(F)F)c5)c4)cc3s2)C1` (centres undefined): in test [1], the EC50 was determined as 0.334 µM. Moreover, the result in test [2] was Active. Moreover, the outcome in test [3] was inactive. Further, in test [4], the CC50 is > 100 µM.

`O=C(Cc1cccc(C(F)(F)F)c1)Nc1cc(Oc2cc3sc(NC(=O)C4CCC(NC(=O)CCCl)CC4)nc3cc2F)ccc1F` (centres undefined): the EC50 in test [1] amounted to 0.05 µM. Also, the result in test [2] was Active. Further, the Kd in test [5] is 0.043 µM; in test [6] it was > 10 µM. Further, the result in test [3] was inactive. For the same compound, the CC50 in test [4] was > 100 µM.
